The values below come from patent US20080220056A1, “Treatment for liver disease” (UNIVERSITY OF SOUTHAMPTON, priority 2002, published 2008).

In test [1] the test system is human hepatic stellate cells. The experiment in a line: Morphology of culture-activated human hepatic stellate cells (light microscopy). It is filed as cell-based. The source says:
(§1) Rat hepatic stellate cells (HSCs) were isolated by pronase/collagenase perfusion and purified by isopycnic density centrifugation in Opti-prep™ (Nycomed, Amersham, England) and elutriation essentially as previously described (Bahr et al., Hepatology (1999) 29:839-848). Human hepatic stellate cells were isolated from discarded resected liver via a similar protocol (Trim et al., J. Biol. Chem., (2000) 275:6657-6663). The use of human liver tissue for scientific investigation was approved by the UK South and West Local Research Ethics Committee and was subject to patient consent.
(§2) It has been shown recently that liver myofibroblasts may contribute to liver fibrogenesis and that liver myofibroblasts may have the potential to contaminate passaged hepatic stellate cell cultures (Knittel et al., Gastronenterology, (1999) 117:1205-1221). In this study, only primary cultures of hepatic stellate cells were used, which were desmin and glial fibrillary acid protein positive (markers shown to be expressed in hepatic stellate cells, but not liver myofibroblasts—Knittel et al., supra).
Cells were treated with gliotoxin dissolved in DMSO vehicle (added to medium from a 2000-fold molar concentrated stock). Control cells received DMSO vehicle only (i.e., 0.05% vol/vol). […] Protein contents of wells were determined using the Lowry assay (Lowry et al., J. Biol. Chem., (1951)193: 265-275). […]

The test system of test [2] is rat hepatic stellate cells. In words: Morphology and detachment of culture-activated rat hepatic stellate cells (light microscopy). It counts as cell-based.
Text: as §1, §2
Cells were treated with gliotoxin dissolved in DMSO vehicle (added to medium from a 2000-fold molar concentrated stock). Control cells received DMSO vehicle only (i.e., 0.05% vol/vol). All other additions to culture medium were made from concentrated stocks dissolved in DMSO or by direct addition to culture medium. Protein contents of wells were determined using the Lowry assay (Lowry et al., J. Biol. Chem., (1951)193: 265-275).
Culture activated rat (14 day) and human (24 day) hepatic stellate cells were treated with DMSO solvent control or 1.5 μMol/L gliotoxin. […] Hepatic stellate cells changed from a flattened fibroblastic phenotype with distinct cell-cell interfaces to a substratum detached, rounded, and blebbed morphology.

Test [3] deals with rat hepatic stellate cells. The experiment in a line: Low molecular weight DNA fragmentation (nucleosomal ladder) in rat hepatic stellate cells. It counts as cell-based. Here is the method:
Hepatic stellate cells cultured in 35-mm diameter dishes (Greiner) were harvested, pelleted by centrifugation and DNA fragmentation determined as outlined elsewhere (Elsharkawy et al., Hepatology (1999) 30:761-769). Propidium Iodide Flow-Activated Cell Sorting Analysis Detached cells were pelleted by centrifugation, washed in PBS, and resuspended in HYPO buffer (0.1% wt/vol) Na3Citrate and 0.1% (wt/vol) Triton™ X-100 containing […] propidium iodide and incubated for 1 hour. The cells were then analyzed by fluorescence-activated cell sorter (FACS) with a Becton Dickinson (San Jose, Calif.) FACScan instrument using a 488 nm excitation wavelength with a band pass filter set at 530 nm. Attached cells were scraped in HYPO buffer after washing cells with PBS.
The effect of gliotoxin on the cleavage of DNA to a nucleosomal ladder was examined because this phenomenon is characteristic of apoptosis. Culture activated (14-day) rat hepatic stellate cells in six well plates were treated with either 0.05% (vol/vol) DMSO for four hours or 1.5 μmol/L gliotoxin for zero hours, half an hour, one hour, two hours or four hours. At each time point, both detached and attached cells were harvested together and low molecular weight DNA (20,000 g supernatant) fragmentation determined as outlined in the materials and methods section. At least three separate experiments were performed. 1 kilobase DNA ladder (Promega) was used as a molecular weight marker.
The effect of various compounds on DNA laddering was then determined. Culture-activated (14-day) rat hepatic stellate cells in six-well plates were treated with:
After fours hours of treatment, DNA fragmentation was determined.
Culture activated (14 day) rat hepatic stellate cells in six well plates were treated with: • (a) 0.05% (vol/vol) DMSO; • (b) 1.5 μmol/L gliotoxin; • (c) 1.5 μmol/L gliotoxin with 100 μmol/L tamoxifen; • (d) 1.5 μmol/L gliotoxin with […] actinomycin d; • (e) 1.5 μmol/L gliotoxin with 10 μmol/L cycloheximide; • (f) 1.5 μmol/L gliotoxin with 10 μmol/L cyclosporin; • (g) 1.5 μmol/L gliotoxin with […] m-iodobenzylguanidine; • (h) 1.5 μmol/L gliotoxin with 50 μmol/L quin-2-am; • (i) 50 μmol/L guin-2-am alone; • (j) 250 μmol/L m-iodobenzylguanidine; • (k) 10 μmol/L cyclosporin; • (l) 10 μmol/L cycloheximide; • (m) 1 μg/ml actinomycin d; or • (n) 100 μmol/L tamoxifen.
After four hours of treatment, DNA fragmentation was determined as outlined in Materials and Methods.

The test system of test [4] is human hepatic stellate cells. In words: Hepatic stellate cell apoptosis by acridine orange staining and counting (cycloheximide or serum deprivation), human cells. The settings on record: human HSC; protein at 142.5 ng/ml. It counts as cell-based. Here is the method:
(§3) Human hepatic stellate cells were extracted from the margins of normal human liver resected for colonic metastatic disease as previously described (Iredale et al., Clin. Sci., (1995) 89: 75-81). Rat hepatic stellate cells were extracted from normal rat liver by Pronase and collagenase digestion and purified by centrifugal elutriation as described (Arthur et al., J. Clin. Invest., (1989) 84:1076-1085). Extracted hepatic stellate cells were cultured on plastic until they were activated to a myofibroblastic phenotype after 7 to 10 days. Human and rat hepatic stellate cells were used for experiments after activation in primary culture or before fourth passage. Cells were cultured in Dulbecco's modified Eagle's medium in the presence of 16% fetal calf serum and antibiotics.
Apoptosis of hepatic stellate cells was induced by absolute serum deprivation, cycloheximide treatment (Issa et al., Gut (2001) 48: S48-S57), or exposure to nerve growth factor as previously described (Trim et al., Am. J. Pathol., (2000) 156, 1235-1243). Hepatic stellate cells were cultured in 24-well tissue culture plates. […] Following a 4 hour incubation at 37° C., nuclear morphology was assessed by adding acridine orange to each well (final concentration 1 μg/ml) and observing the cells under blue fluorescence. The total number of apoptotic bodies was counted, and any apoptotic bodies floating in the supernatant were included by racking up the objective lens. The total number of cells per field was counted, and an apoptotic index was calculated. Each condition was performed in duplicate, and three high power fields were counted for each well. […] To examine for autocrine effects, hepatic stellate cells were incubated for 18 hours with azide-free polyclonal neutralizing antibodies to TIMP-1 and a nonimmune IgG control (Santa Cruz Biotechnology, Inc., Santa Cruz, Calif.), and responses were assessed by acridine orange staining and counting.
Apoptosis was assessed by acridine orange staining. […]

Test [5] deals with rat hepatic stellate cells. In words: Hepatic stellate cell apoptosis by acridine orange staining and counting (cycloheximide or serum deprivation), rat cells. It is filed as cell-based. The following applies: rat HSC; protein at 142.5 ng/ml. Here is the method:
as §3
(§4) Apoptosis of hepatic stellate cells was induced by absolute serum deprivation, cycloheximide treatment (Issa et al., Gut (2001) 48: S48-S57), or exposure to nerve growth factor as previously described (Trim et al., Am. J. Pathol., (2000) 156, 1235-1243). Hepatic stellate cells were cultured in 24-well tissue culture plates. Rat and human hepatic stellate cells were exposed to proapoptotic stimuli with and without recombinant TIMP-1 (Biogenesis, Poole, UK) and other manipulations as detailed below. Following a 4 hour incubation at 37° C., nuclear morphology was assessed by adding acridine orange to each well (final concentration 1 μg/ml) and observing the cells under blue fluorescence. The total number of apoptotic bodies was counted, and any apoptotic bodies floating in the supernatant were included by racking up the objective lens. The total number of cells per field was counted, and an apoptotic index was calculated. Each condition was performed in duplicate, and three high power fields were counted for each well. […] To examine for autocrine effects, hepatic stellate cells were incubated for 18 hours with azide-free polyclonal neutralizing antibodies to TIMP-1 and a nonimmune IgG control (Santa Cruz Biotechnology, Inc., Santa Cruz, Calif.), and responses were assessed by acridine orange staining and counting.
Apoptosis was assessed by acridine orange staining. […] A normal cell lies adjacent to the apoptotic body. This technique was used to determine the percentage of apoptotic hepatic stellate cells following exposure to cyclohexamide in the presence or absence of TIMP-1. Hepatic stellate cells were exposed to 50 μM cyclohexamide and 0, 1, 10, 100 or 200 ng/ml of TIMP-1. Cells treated with serum alone were used as controls. […] Bovine serum albumin, used as a carrier for the TIMP-1 had no antiapoptotic effect.

The target in a further test is MMP-3 (Homo sapiens, UniProt P08254). The following applies: T2G versus wild type; cited from earlier work.
Sequence of MMP-3 (P08254 100-477, species assumed): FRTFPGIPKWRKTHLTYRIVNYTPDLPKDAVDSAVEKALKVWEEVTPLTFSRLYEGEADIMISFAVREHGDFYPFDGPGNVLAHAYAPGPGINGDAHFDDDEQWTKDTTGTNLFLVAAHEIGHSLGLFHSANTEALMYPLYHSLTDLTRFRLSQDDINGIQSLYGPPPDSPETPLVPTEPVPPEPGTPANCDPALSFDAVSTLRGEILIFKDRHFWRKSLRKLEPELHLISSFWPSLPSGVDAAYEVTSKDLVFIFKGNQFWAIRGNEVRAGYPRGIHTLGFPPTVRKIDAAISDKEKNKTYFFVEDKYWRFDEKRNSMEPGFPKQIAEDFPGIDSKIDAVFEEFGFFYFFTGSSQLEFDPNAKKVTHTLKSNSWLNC
In test [6] the test system is caspase-3 activity in hepatic stellate cells. In words: Caspase-3 activity in cycloheximide-treated hepatic stellate cells. The settings on record: wild type TIMP-1 or T2G mutant N-TIMP-1. It counts as cell-based. The protocol: Apoptosis was quantified by a colorimetric assay for caspase-3 activity (Promega) according to the manufacturer's instructions.
Caspase-3 is a central caspase in the proapoptotic cascade (Hengartner, Nature (2000) 407, 770-776) and can be used as an alternative assay to assess apoptosis. Hepatic stellate cells were cultured in 50 μM cycloheximide with TIMP-1 at a concentration of 0, 1, 10, or 100 ng/ml. Controls where cells were incubated with either the caspase 3 inhibitor benzyloxycarbonyl-Val-Ala-Asp-fluoromethylketone or serum alone were also performed. Data are expressed as mean ±S.E. and are presented as percentage of control given the arbitrary value of 100%. * indicates p<0.001; n=3. […] Although the mean caspase-3 activity of the cells treated with 10 ng/ml TIMP-1 was slightly lower than that treated with 100 ng/ml of TIMP-1, this was not statistically significant (p=0.67 by Student's t test).

For another test, the system named is hepatic stellate cells. In words: Nerve growth factor induced apoptosis of hepatic stellate cells. It counts as cell-based. The settings on record: NGF 100 ng/ml, absolute serum deprivation. The protocol: as §4, with “counting. […]” for “counting.”

Take `CS[C@]1(CO)C(=O)N2[C@H]3C(=CC=C[C@@H]3O)C[C@@]2(SC)C(=O)N1C` [mt-glio, bis-dethio-bis(methylthio)-gliotoxin]: the morphologic alterations result in test [1] (culture activated (24 day) human HSC, 1.5 μmol/L) is listed as “had no effect on the morphology”; in test [2] (culture activated (14 day) rat HSC, 1.5 μmol/L), “had no effect on the morphology”. In addition, in test [3] (rat HSC, 1.5 μmol/L, up to four hours), the “cleavage of DNA to a nucleosomal ladder” value is recorded as “did not result in the cleavage of DNA to a nucleosomal ladder”.

As for `S=C(S)N1CCCC1` [pyrrolidine dithiocarbamate], the “effect on morphologic effects of gliotoxin” value in test [1] (human HSC, cotreatment with gliotoxin) is reported as “blocked the morphologic effects of gliotoxin”. Further, the “effect on morphologic alterations / detachment caused by gliotoxin” value in test [2] (rat HSC, with 1.5 μmol/L gliotoxin, Z-VAD-FMK 100 μmol/L, PDTC 300 μmol/L, tamoxifen 100 μmol/L, m-IBG 250 (mmol/L in the source), quin-2-am 50 μmol/L) was “blocked the morphologic effects of gliotoxin”. Moreover, in test [3] (with 1.5 μmol/L gliotoxin, four hours, PDTC 300 μmol/L, tamoxifen 100 μmol/L, m-IBG 250 (mmol/L in the source), cyclosporin 10 μmol/L, quin-2-am 50 μmol/L), the “effect on gliotoxin-induced cleavage of DNA to a nucleosomal ladder” value was “blocks the cleavage of DNA to a nucleosomal ladder”.

For “T2G mutant N-TIMP-1: mutated nonfunctional TIMP-1, threonine to glycine at amino acid position 2, no MMP inhibitory activity”, the “apoptosis induced by cycloheximide (acridine orange)” value in test [4] and in test [5] was “had no inhibitory effect” throughout. In the test with MMP-3, the “factor by which the mutation changes the inhibition constant of TIMP-1 for MMP-3” value was “over 1000”. Besides, the “caspase-3 activity in cycloheximide-treated hepatic stellate cells” value in test [6] is given as “no effect was observed”.

On to “NGF: nerve growth factor, ligand of p75 on hepatic stellate cells”, for which the “apoptosis in hepatic stellate cells versus BSA carrier alone” value in the test with hepatic stellate cells is “induced significantly more apoptosis”.
